The target of one assay is T1, human 11β-HSD1 (Homo sapiens, UniProt P28845).
T1 construct: 100 ug/ml human/mouse liver microsomes; from tissue; host or cells: human liver microsomes
Nature of the assay: Enzyme activity analysis on human 11β-HSD1 (HTRF cortisol, liver microsomes). It counts as biochemical. The settings on record: first value of cell. In short, it runs like this:
(§1)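 Cortisol generated by mouse or human liver microsome 11β-HSD1 during 2 h at 37° C., measured by HTRF competition (cryptate anti-cortisol antibody, d2-cortisol, 2 h room temperature) against a cortisol standard curve. IC50 from percent inhibition versus no-compound control.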

The next assay has as its target T2, mouse 11β-HSD1 (Mus musculus, UniProt P50172).
T2 construct: 100 ug/ml human/mouse liver microsomes; from tissue; host or cells: mouse liver microsomes
Kind of assay: Enzyme activity analysis on mouse 11β-HSD1 (HTRF cortisol, liver microsomes). The format is biochemical. The settings on record: second value of cell. In short, it runs like this: as §1
On the technique in general: In TR-FRET formats the signal depends on donor and acceptor labels being close together.

T1 sequence (P28845 whole entry): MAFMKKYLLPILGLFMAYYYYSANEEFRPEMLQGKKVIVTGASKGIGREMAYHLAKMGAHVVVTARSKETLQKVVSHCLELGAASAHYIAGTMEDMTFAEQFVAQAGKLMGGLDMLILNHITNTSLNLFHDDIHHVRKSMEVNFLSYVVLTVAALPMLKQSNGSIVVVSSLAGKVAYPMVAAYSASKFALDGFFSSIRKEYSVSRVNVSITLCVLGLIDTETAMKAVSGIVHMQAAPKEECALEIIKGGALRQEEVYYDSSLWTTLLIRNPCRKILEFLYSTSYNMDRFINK
T2 sequence (P50172 whole entry): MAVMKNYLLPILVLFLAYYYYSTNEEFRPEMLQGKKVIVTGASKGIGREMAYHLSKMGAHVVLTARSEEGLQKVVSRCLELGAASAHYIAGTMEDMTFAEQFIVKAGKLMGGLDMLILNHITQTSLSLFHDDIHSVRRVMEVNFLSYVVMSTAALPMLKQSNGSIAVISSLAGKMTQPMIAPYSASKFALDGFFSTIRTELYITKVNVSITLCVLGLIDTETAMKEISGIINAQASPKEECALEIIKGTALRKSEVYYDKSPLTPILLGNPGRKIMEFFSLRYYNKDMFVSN

The IC50 is the concentration that gives 50% inhibition. Take `COc1cccc(F)c1S(=O)(=O)N(C)C(C)(C)C(=O)NC1C2CC3CC1CC(C(N)=O)(C3)C2` (centres unmarked) [compound 194, N-4-(2-(2-methoxy-6-fluoro-N-methylphenylsulfonamido)-2-methylpropanamido)adamantane-1-carboxyamide]: the IC50 came to 0.012 µM against human 11β-HSD1 and 0.006 µM against mouse 11β-HSD1.
For the compound `CC(C)NC(=O)C12CC3CC(C1)C(NC(=O)C(C)(C)NS(=O)(=O)c1ccccc1Br)C(C3)C2` (centres unmarked) [compound 228, 4-[2-(2-bromo-benzenesulfonylamino)-2-methyl-propionylamino]-adamantane-1-carboxylic acid isopropylamide], the IC50 on human 11β-HSD1 and against mouse 11β-HSD1 was greater than 2.5 µM each time.
`CN(C(C)(C)C(=O)NC1C2CC3CC1CC(C(N)=O)(C3)C2)S(=O)(=O)c1ccccc1N` (centres unmarked) [compound 223, N-4-(2-(2-amino-N-methylphenylsulfonamido)-2-methylpropanamido)adamantane-1-carboxyamide]: the IC50 on human 11β-HSD1 is 0.011 µM; at mouse 11β-HSD1, 0.023 µM.
As to `CC(C)(NS(=O)(=O)c1ccccc1Cl)C(=O)NC1C2CC3CC1CC(C(=O)NC1CCCCC1)(C3)C2` (centres unmarked) [compound 233, 4-[2-(2-chloro-benzenesulfonylamino)-2-methyl-propionylamino]-adamantane-1-carboxylic acid cyclohexylamide], the IC50 at human 11β-HSD1 and at mouse 11β-HSD1 was greater than 2.5 µM throughout.
For `NC(=O)C12CC3CC(C1)C(NC(=O)C1(NS(=O)(=O)c4cccc(Cl)c4Cl)CCCCC1)C(C3)C2` (centres unmarked) [compound 183, N-4-(1-(2,3-dichlorophenylsulfonamido)cyclohexanecarboxyamido)adamantane-1-carboxyamide], the IC50 was found to be 0.017 µM against human 11β-HSD1 and 0.044 µM against mouse 11β-HSD1.
On to `Cc1ccccc1S(=O)(=O)NC(C)(C)C(=O)NC1C2CC3CC(C2)CC1C3` (centres unmarked) [compound 15, N-(adamantane-2-yl)-2-methyl-2-(2-methylphenylsulfonamido)propanamide], for which the figures for the IC50 against human 11β-HSD1 and against mouse 11β-HSD1 were 0.036 µM and 0.313 µM, respectively.
The matching figures for `CC(C)(NS(=O)(=O)c1c(Cl)cc(Cl)cc1Cl)C(=O)NC1C2CC3CC1CC(C(N)=O)(C3)C2` (centres unmarked) [compound 112, N-4-(2-(2,4,6-trichlorophenylsulfonamido)-2-methylpropanamido)adamantane-1-carboxy amide]: 0.024 µM and 0.011 µM.
As to `CN(C1(C(=O)NC2C3CC4CC2CC(C(N)=O)(C4)C3)CCC1)S(=O)(=O)c1ccccc1[N+](=O)[O-]` (centres unmarked) [compound 199, N-4-(1-(N-methyl-2-nitrophenylsulfonamido)cyclobutanecarboxyamido)adamantane-1-carboxyamide], the IC50 on human 11β-HSD1 stood at 0.004 µM; against mouse 11β-HSD1, 0.016 µM.
For the compound `CN(C(C)(C)C(=O)NC1C2CC3CC1CC(O)(C3)C2)S(=O)(=O)c1ccccc1C(F)(F)F` (centres unmarked) [compound 208, N-(5-hydroxyadamantane-2-yl)-2-(2-trifluoromethyl-N-methylphenylsulfonamido)-2-methylpropanamide], the IC50 is 0.006 µM at human 11β-HSD1 and 0.092 µM at mouse 11β-HSD1.
With `CC(C)(NS(=O)(=O)Cc1ccccc1Cl)C(=O)NC1C2CC3CC(C2)CC1C3` (centres unmarked) [compound 34, N-(adamantane-2-yl)-2-methyl-2-((2-chlorophenyl)methylsulfonamido)propanamide], the IC50 at human 11β-HSD1 was 0.048 µM; against mouse 11β-HSD1, 0.7 µM.
Regarding `CC(C)(NS(=O)(=O)c1cccc(Cl)c1)C(=O)NC1C2CC3CC(C2)CC1C3` (centres unmarked) [compound 10, N-(adamantane-2-yl)-2-methyl-2-(3-chlorophenylsulfonamido)propanamide], the results for the IC50 at human 11β-HSD1 and against mouse 11β-HSD1 were 0.212 µM and 0.735 µM, respectively.
Taken in the same sequence, the figures for `CC(C)(NS(=O)(=O)c1cc(Cl)cc(Cl)c1)C(=O)NC1C2CC3CC(C2)CC1C3` (centres unmarked) [compound 26, N-(adamantane-2-yl)-2-methyl-2-(3,5-dichlorophenylsulfonamido)propanamide] were 1.27 µM and greater than 2.5 µM.
Regarding `Cc1c(Cl)cccc1S(=O)(=O)NC1(C(=O)NC2C3CC4CC2CC(C(N)=O)(C4)C3)CCCCC1` (centres unmarked) [compound 180, N-4-(1-(3-chloro-2-methylphenylsulfonamido)cyclohexanecarboxyamido)adamantane-1-carboxyamide], the results for the IC50 on human 11β-HSD1 and on mouse 11β-HSD1 were 0.023 µM and 0.328 µM, respectively.
Turning to `CC(C)(NS(=O)(=O)c1ccc(C(F)(F)F)cc1)C(=O)NC1C2CC3CC(C2)CC1C3` (centres unmarked) [compound 37, N-(adamantane-2-yl)-2-methyl-2-(4-trifluoromethylphenylsulfonamido)propanamide], the IC50 against human 11β-HSD1 and on mouse 11β-HSD1 was greater than 2.5 µM throughout.
On to `CC(C)(NS(=O)(=O)c1cc(C(F)(F)F)ccc1Br)C(=O)NC1C2CC3CC1CC(C(N)=O)(C3)C2` (centres unmarked) [compound 110, N-4-(2-(2-bromo-5-trifluoromethylphenylsulfonamido)-2-methylpropanamido)adamantane-1-carboxyamide], for which the values for the IC50 at human 11β-HSD1 and at mouse 11β-HSD1 were 0.014 µM and 0.556 µM, respectively.
Turning to `CC(C)(NS(=O)(=O)c1ccccc1OC(F)(F)F)C(=O)NC1C2CC3CC(C2)CC1C3` (centres unmarked) [compound 25, N-(adamantane-2-yl)-2-methyl-2-(2-(trifluoromethoxy)phenylsulfonamido)propanamide], the IC50 against human 11β-HSD1 was 0.045 µM; against mouse 11β-HSD1, 0.42 µM.
`O=C(NC1C2CC3CC(C2)CC1C3)C1(NS(=O)(=O)c2ccccc2OC(F)(F)F)CCC1` (centres unmarked) [compound 144, N-(adamantane-2-yl)-1-(2-trifluoromethoxyphenylsulfonamido)cyclobutanecarboxyamide]: the IC50 stood at 0.265 µM against human 11β-HSD1 and 1.82 µM on mouse 11β-HSD1.
Taken in the same sequence, the figures for `CC(C)(NS(=O)(=O)c1cccc([N+](=O)[O-])c1)C(=O)NC1C2CC3CC(C2)CC1C3` (centres unmarked) [compound 66, N-(adamantane-2-yl)-2-methyl-2-(3-nitrophenylsulfonamido)propanamide] were 0.511 µM and 0.914 µM.
For `NC(=O)C12CC3CC(C1)C(NC(=O)C1(NS(=O)(=O)c4cccc(Cl)c4F)CCC1)C(C3)C2` (centres unmarked) [compound 159, N-4-(1-(2-fluoro-3-chlorophenylsulfonamido)cyclobutanecarboxyamido)adamantane-1-carboxyamide], the IC50 against human 11β-HSD1 came out at 0.096 µM; against mouse 11β-HSD1, 0.126 µM.
As to `CC(C)(NS(=O)(=O)c1ccc(C(F)(F)F)cc1)C(=O)NC1C2CC3CC1CC(C(N)=O)(C3)C2` (centres unmarked) [compound 126], the IC50 on human 11β-HSD1 stood at 0.182 µM; at mouse 11β-HSD1, 0.455 µM.
Taken in the same sequence, the figures for `COc1ccc(S(=O)(=O)NC(C)(C)C(=O)NC2C3CC4CC2CC(C(N)=O)(C4)C3)cc1F` (centres unmarked) [compound 115, N-4-(2-(3-fluoro-4-methoxyphenylsulfonamido)-2-methylpropanamido)adamantane-1-carboxyamide] were 0.235 µM and 0.456 µM.
Regarding `CN(C(C)(C)C(=O)NC1C2CC3CC1CC(C(N)=O)(C3)C2)S(=O)(=O)c1cccc(Cl)c1Cl` (centres unmarked) [compound 198], the IC50 at human 11β-HSD1 is 0.008 µM; against mouse 11β-HSD1 it was 0.003 µM.
Take `CC(C)(NS(=O)(=O)c1cc(C(F)(F)F)ccc1C(F)(F)F)C(=O)NC1C2CC3CC1CC(C(N)=O)(C3)C2` (centres unmarked) [compound 109, N-4-(2-(2,5-bistrifluoromethylphenylsulfonamido)-2-methylpropanamido)adamantane-1-carboxyamide]: the results for the IC50 against human 11β-HSD1 and against mouse 11β-HSD1 were 0.045 µM and 1.24 µM, respectively.
On to `O=C(NC1C2CC3CC(C2)CC1C3)C1(NS(=O)(=O)c2cccc3cccnc23)CCC1` (centres unmarked) [compound 141, N-(adamantane-2-yl)-1-(quinoline-8-sulfonamido)cyclobutanecarboxyamide], for which the IC50 is 0.139 µM at human 11β-HSD1 and 0.208 µM on mouse 11β-HSD1.
As to `CC(C)(NS(=O)(=O)c1ccccc1)C(=O)NC1C2CC3CC(C2)CC1C3` (centres unmarked) [compound 1, N-(adamantane-2-yl)-2-methyl-2-(phenylsulfonamido)propanamide], the IC50 came out at 0.04 µM at human 11β-HSD1 and 0.19 µM at mouse 11β-HSD1.
The matching figures for `Cc1ccc([N+](=O)[O-])cc1S(=O)(=O)NC(C)(C)C(=O)NC1C2CC3CC(C2)CC1C3` (centres unmarked) [compound 40, N-(adamantane-2-yl)-2-methyl-2-(5-nitro-2-methylphenylsulfonamido)propanamide]: 0.098 µM and 1.85 µM.
On to `Cc1ccc(F)cc1S(=O)(=O)NC1(C(=O)NC2C3CC4CC2CC(C(N)=O)(C4)C3)CCC1` (centres unmarked) [compound 165, N-4-(1-(2-methyl-5-fluorophenylsulfonamido)cyclobutanecarboxyamido)adamantane-1-carboxyamide], for which the IC50 on human 11β-HSD1 stood at 0.101 µM; against mouse 11β-HSD1, 0.29 µM.
For the compound `Cc1c(Cl)cccc1S(=O)(=O)NC(C)(C)C(=O)NC1C2CC3CC(C2)CC1C3` (centres unmarked) [compound 7, N-(adamantane-2-yl)-2-methyl-2-(3-chloro-2methylphenylsulfonamido)propanamide], the IC50 against human 11β-HSD1 is 0.08 µM; at mouse 11β-HSD1, 0.33 µM.
Consider `NC(=O)C12CC3CC(C1)C(NC(=O)C1(NS(=O)(=O)c4ccccc4C(F)(F)F)CCC1)C(C3)C2` (centres unmarked) [compound 157, N-4-(1-(2-trifluoromethylphenylsulfonamido)cyclobutanecarboxyamido)adamantane-1-carboxyamide], for which the IC50 was determined as 0.061 µM at human 11β-HSD1 and 0.41 µM against mouse 11β-HSD1.
`Cc1c(Cl)cccc1S(=O)(=O)NC1(C(=O)NC2C3CC4CC2CC(C(N)=O)(C4)C3)CCC1` (centres unmarked) [compound 149, N-4-(1-(2-methyl-3-chlorophenylsulfonamido)cyclobutanecarboxyamido)adamantane-1-carboxyamide]: the IC50 stood at 0.015 µM against human 11β-HSD1 and 0.04 µM on mouse 11β-HSD1.
On to `CC(C)(NS(=O)(=O)c1cccc(Cl)c1Cl)C(=O)NC1C2CC3CC(C2)CC1C3` (centres unmarked) [compound 8, N-(adamantane-2-yl)-2-methyl-2-(2,3-dichlorophenylsulfonamido)propanamide], for which the values for the IC50 at human 11β-HSD1 and at mouse 11β-HSD1 were 0.052 µM and 0.264 µM, respectively.

These data come from patent US9073830B2 (Hyundai Pharm Co., Ltd., priority 2011, dated 2015).
